Laboratory results reported in patent publication US20210330645A1, “ANTIBACTERIAL COMBINATIONS” (priority 2018, published 2021).
Values after ≈ are worked out from the molar mass of the structure shown. Values joined by “and” are separate entries in the source; they are usually repeats but may differ in a detail not shown here. Equal values may be shown once.

How the values were obtained:
Klebsiella pneumoniae = test: Checkerboard growth inhibition assay, Klebsiella pneumoniae; format: cell-based; settings: CM4 did not inhibit growth in the range used
Experimental: (§1) Each combination was performed in triplicate.
(§2) The interaction between two drugs was interpreted as synergistic if FICi was ≤0.5, indifferent if it was >0.5 and ≤4, and antagonistic if it was >4.
Triple synergy is based on the pairwise synergies of the three antibacterials, FZ (a nitrofuran), DOC and Van. To start understanding the triple interaction, a series of experiments analysing pairwise combinations were carried out. […] In contrast, Klebsiella is susceptible to synergistic action of FZ (but not NF and NFZ) with DOC and is resistant to nitrofuran CM4.

Escherichia coli O157 = test: Checkerboard growth inhibition assay, E. coli O157; format: cell-based; settings: for FIC of the single component within the triple combination: Van+FZ+DOC at the lowest FICi point
Experimental: as §1, §2
(§3) A growth inhibition assay was used where a series of concentrations of each antibacterial was applied combined with several concentrations of other two antibacterials (7 concentrations of Van, 8 of FZ and 9 of DOC). […] Starting from the highest concentrations, two-fold dilution series were assayed. E. coli cultures were seeded with ˜10^6 cells/mL and incubated overnight. Optical densities of each combination of concentrations were measured to assess growth and the inhibition relative to the no-antibiotic control were calculated. […] The synergistic interaction has been defined by the Fractional Inhibitory Concentration index (FICi); see the Definitions and Material and Methods sections. FICi represents the sum of the individual Fractional Inhibitory Concentrations (FIC). An FIC in turn is equal to the ratio of concentration that inhibits growth (>90%) in combination vs. alone. For pairwise combinations, the FICi below 0.5 (below 0.25 for each antibiotic) is considered synergistic; by extension for triple combination the FICi should be <0.75 (again below 0.25 for each antibiotic).

E. coli K12 = test: Checkerboard / dose-response growth inhibition assay, E. coli K12; format: cell-based, Escherichia coli; settings: for FIC of the single component within the triple combination: Van+FZ+DOC at the lowest FICi point; for growth inhibition at the concentrations of the time-kill assay: FZ 1.25 μg/ml, alone or in combination
Experimental: E. coli was grown in 2×YT medium (BD Difco) at 37° C. with shaking at 200 rpm. For preparation of exponential phase cells, fresh overnight culture was 100-fold diluted and incubated to reach the OD600nm of about 0.1-0.2. This cell suspension was then diluted to the desirable concentration depending on specific purposes.
as §1, §2, §3

E. coli [1] = settings: cited from earlier work
E. coli [2] = test: Growth inhibition of E. coli by vancomycin (strain not specified)
[3] = cited from earlier work
[4] = system: various Gram-negative bacteria; test: Inhibition of various Gram-negative bacteria by vancomycin alone and in combination; format: cell-based
Experimental: as §1

[5] = with FZ and DOC, at the lowest FICi point

With O=C(NN=Cc1ccc([N+](=O)[O-])o1)c1ccco1 [CM4, N′-[(5-nitrofuran-2-yl)methylidene]furan-2-carbohydrazide] the “concentration range in which growth was not inhibited (up to)” value (Klebsiella pneumoniae) was over 256 µg/mL.
For C[C@H](CCC(=O)[O-])[C@H]1CC[C@H]2[C@@H]3CC[C@@H]4C[C@H](O)CC[C@]4(C)[C@H]3C[C@H](O)[C@]12C.[Na+] [DOC, sodium; (4R)-4-[(3R,5R,8R,9S,10S,12S,13R,14S,17R)-3,12-dihydroxy-10,13-dimethyl-2,3,4,5,6,7,8,9,11,12,14,15,16,17-tetradecahydro-1H-cyclopenta[a]phenanthren-17-yl]pentanoate], the “FIC of the single component within the triple combination” value (shortened to “FIC”) (Escherichia coli O157) was 0.03125, the “FIC” value (E. coli K12) was 0.0625 and the “growth inhibition at the concentrations of the time-kill assay” value (shortened to “growth inhibition at the concentrations”) (E. coli K12; strain K1508, DOC 2,500 μg/ml) was “sub-inhibitory”.
In the case of O=C1OCCN1/N=C/c1ccc([N+](=O)[O-])o1 [FZ, 3-[(E)-(5-nitrofuran-2-yl)methylideneamino]-1,3-oxazolidin-2-one], the “FIC” value (Escherichia coli O157) is reported as 0.0625, the “growth inhibition at the concentrations” value (E. coli K12; strain BW25113, Van 125 μg/ml) is reported as “sub-inhibitory” and the “growth inhibition at the concentrations” value (E. coli K12; strain K1508, DOC 2,500 μg/ml) is reported as “sub-inhibitory”.
In the case of CN[C@H](CC(C)C)C(=O)N[C@H]1C(=O)N[C@@H](CC(N)=O)C(=O)N[C@H]2C(=O)N[C@H]3C(=O)N[C@H](C(=O)N[C@H](C(=O)O)c4cc(O)cc(O)c4-c4cc3ccc4O)[C@H](O)c3ccc(c(Cl)c3)Oc3cc2cc(c3O[C@@H]2O[C@H](CO)[C@@H](O)[C@H](O)[C@H]2O[C@H]2C[C@](C)(N)[C@H](O)[C@H](C)O2)Oc2ccc(cc2Cl)[C@H]1O [Van, vancomycin], the “concentration of Van required to inhibit, used alone” value (Escherichia coli O157; 90% growth inhibition) is reported as 250 µg/mL, the “FIC” value (Escherichia coli O157) is reported as 0.03125 and the “concentration of Van required to inhibit, in triple combination” value (Escherichia coli O157; [5]) is reported as 16 µg/mL. For the same compound, the “MIC when used on its own” value (E. coli [1]) was 250 µg/mL (≈ 173 µM), the “concentration required for E. coli growth inhibition when used on its own” value (E. coli [2]) was over 250 µg/mL and the “Van concentration in triple combination at several points in the graph” value (E. coli [2]; E. coli K12 and O157, with FZ and DOC) was 16 µg/mL and 10 µg/mL. For the same compound, the known nephrotoxic concentrations ([3]; depending on the mode and length of treatment) was 30 µg/mL and 20 µg/mL, the “concentration considered below nephrotoxic level (sub-toxic)” value ([3]; recommended therapeutic concentration, 6-day treatment) was “below 20 μg/mL” and the “concentration of vancomycin required to inhibit, before lowering (alone)” value ([4]; some variation between strains) was “about 500 μg/mL”. For the same compound, the “bactericidal concentration of vancomycin in the triple combination” value ([4]; with a nitrofuran and DOC) was 15.6 µg/mL, the “concentration of Van required to inhibit, used alone” value (E. coli K12; 90% growth inhibition) was 500 µg/mL and the “FIC” value (E. coli K12) was 0.03125. The “growth inhibition at the concentrations” value (E. coli K12; strain BW25113, Van 125 μg/ml) was “sub-inhibitory” and the “concentration of Van required to inhibit, in triple combination” value (E. coli K12; [5]) was 20 µg/mL.
